Reference: paper PMC8955307, “Nucleobase-Derived Nitrones: Synthesis and Antioxidant and Neuroprotective Activities in an In Vitro Model of Ischemia–Reperfusion” (International Journal of Molecular Sciences, 2022)
“And” between values parts separate entries of the source, which are not always exact repeats. Identical values can stand only once.

tested on: not listed separately; test: ABTS radical cation decolorization assay; conditions: tested at 100 µM
Procedure: Approximately 10 µL of the tested compounds in DMSO (100 µM final concentration) were mixed with 200 µL of ABTS∙^+ (100 mM) and 790 µL absolute ethanol. The absorbance value was recorded 1 min after mixing at 734 nm and compared to Trolox.

Row | Compound | ABTS+ (%)
1 | C/[N+]([O-])=C/Cn1cc(Br)c(=O)[nH]c1=O [9d] | 12
2 | C/[N+]([O-])=C/Cn1cc(Br)c(=O)n(C/C=[N+](/C)[O-])c1=O [9i] | 75
3 | Cc1cn(C/C=[N+](/C)[O-])c(=O)[nH]c1=O [9b] | 14
4 | CC(C)(C)[N+]([O-])=Cc1ccccc1 [PBN, α-phenyl-N-tert-butylnitrone, reference compound] | 5
5 | C/[N+]([O-])=C/Cn1cnc2c(N)ncnc21 [9f] | 6
6 | C/[N+]([O-])=C/Cn1cc(Cl)c(=O)[nH]c1=O [9e] | 19

tested on: human neuroblastoma SH-SY5Y cells; test: Basal neurotoxicity: cell viability under basal conditions; type: cell-based; conditions: not given
Procedure: (§1) Cell viability measurements were carried out in human neuroblastoma cells SHSY5Y using 96-well culture plates, containing about 0.5–1 × 10^5 cells/well, after the OGD-R24h or control treatment including 0.01–1000 µM of the different testing compounds (nitrones 9a–g, PBN, and NAC), utilizing the Cell Proliferation Kit II (XTT), Sigma Aldrich, Madrid, Spain, which determines the culture’s metabolic capacity, as described in [21, 22]. XTT solution (0.3 mg/mL final concentration) was added to the seeded cells, incubated for 2 h at 37 °C with 5% CO2 and 95% air (v/v), and a spectrophotometer reader (Biotek Power-Wave XS microplate-reader (BioTek Instruments, Madrid, Spain) was used to register the absorbance at 450 nm (reference 650 nm) of the soluble formazan product generated. 100% viability was set by control normoxic cells treated with medium only, and control cells were added 0.001–1% DMSO in every assay.

Row | Compound | Neurotoxic effects at basal level (cell viability)
7 | CC(C)(C)[N+]([O-])=Cc1ccccc1 [PBN, α-phenyl-N-tert-butylnitrone, reference compound] | did not show any neurotoxic effects

tested on: not listed separately; test: Inhibition of lipid peroxidation (ILPO), AAPH protocol with sodium linoleate; conditions: tested at 100 µM
Procedure: The reactants consisting of 10 µL (16 mM) sodium linoleate, 10 µL of the tested nitrones in DMSO (final concentration 100 µM), 50 µL of AAPH ([…]) as a free radical initiator, 930 µL phosphate buffer pH 7.4 (0.05 M) at 37 °C under air, were mixed and the reaction’s result (as absorbance value) was recorded at 234 nm in comparison to PBN as a reference.

Row | Compound | ILPO (%)
8 | C/[N+]([O-])=C/Cn1cc(Br)c(=O)n(C/C=[N+](/C)[O-])c1=O [9i] | 71
9 | Cc1cn(C/C=[N+](/C)[O-])c(=O)[nH]c1=O [9b] | 55
10 | CC(C)(C)[N+]([O-])=Cc1ccccc1 [PBN, α-phenyl-N-tert-butylnitrone, reference compound] | 11
11 | C/[N+]([O-])=C/Cn1cc(Cl)c(=O)[nH]c1=O [9e] | 68

tested on: not given; test: not given; conditions: not given

Row | Compound | melting point
12 | C/[N+]([O-])=C/Cn1cc(Br)c(=O)[nH]c1=O [9d] | 180 °C (dec.)
13 | Cc1cn(C/C=[N+](/C)[O-])c(=O)[nH]c1=O [9b] | 182 °C (dec.)
14 | C/[N+]([O-])=C/Cn1cnc2c(N)ncnc21 [9f] | 211 °C (dec.)
15 | C/[N+]([O-])=C/Cn1cc(Cl)c(=O)[nH]c1=O [9e] | 180 °C (dec.)

tested on: SH-SY5Y human neuroblastoma cells; test: Neuroprotection: cell viability (XTT metabolic activity) after OGD (4 h) followed by OGR (24 h) (IR); type: cell-based; conditions: Homo sapiens, 24 h, OGD 4 h + OGR 24 h (IR), read-out: Maximal Activity mean±SEM (neuroprotection)
Procedure: Cultures of human neuroblastoma cells from line SH-SY5Y were performed in flasks containing Dulbecco’s: Ham’s F12, 1:1 [v/v] composed of 0.5 mM sodium pyruvate, 2.5 mM GlutaMAX™; GIBCO, Life Technologies, Madrid (Spain), 3.15 mg/mL glucose, 1% Antibiotic-Antimycotic (100 ui/mL penicillin, […] streptomycin, and 0.25 mg amphotericin B), 1% Gentamicin 15 mg/mL (Sigma-Aldrich, Madrid, Spain) and 10% Fetal Calf Serum (FCS) (Gibco; Life Technologies, Madrid, Spain) as as described. For each experiment, neuroblastoma cells were digested partially with 0.25% trypsin-EDTA and seeded in plates of 96 or 48 wells with a density of 0.5–1 or 2–2.5 × 10^5 cells/well, respectively, depending on the assay. At 80% confluence of the seeded cells, medium was renewed adding 0.1–1000 µM of the compounds tested.
To induce experimental ischemia, and the sub-consequent cellular damage, the neuroblastoma cultures underwent OGD for 3–4 h, maintained in a glucose-free Dulbecco’s medium inside an anaerobic chamber in the presence of a gas mixture of 95% N2/5% CO2 and humidified at 37 °C at a constant pressure of 0.15 bar. After the OGD period (4 h), medium was substituted by oxygenated 10% FCS-containing medium, and cells were incubated in conditions of normoxia for 24 h to recovery (R24h). The compounds used in the neuroprotection studies: nitrones 9a–i, α-phenyl-N-tert-butyl nitrone (PBN) and N-acetyl-L-cysteine (NAC) (0.01 μM−1000 µM), were added at the beginning of R24h as described. Concurrently, controls in the absence of the OGD procedure were performed by maintaining these cells with Dulbecco’s medium including glucose for 3–4 h in an incubator in conditions of normoxia during the OGD period; thereafter, the medium was changed, and the cells (in the presence or absence of the different study compounds) were returned to the incubator for 24 h of recovery, as described. In addition, experiments including the same amounts of vehicle (final concentration < 1% dimethyl sulfoxide) were performed, serving as controls. The effects of nitrones 9a–g were analyzed three-five times independently using different culture batches, and each experiment was carried out in triplicate.
as §1

Row | Compound | Emax [%]
16 | C/[N+]([O-])=C/Cn1cc(Br)c(=O)[nH]c1=O [9d] | 125 ± 8.05
17 | C/[N+]([O-])=C/Cn1cc(Br)c(=O)n(C/C=[N+](/C)[O-])c1=O [9i] | 110 ± 3.97
18 | Cc1cn(C/C=[N+](/C)[O-])c(=O)[nH]c1=O [9b] | 123 ± 8.46
19 | C/[N+]([O-])=C/Cn1cc(Cl)c(=O)[nH]c1=O [9e] | 99.7 ± 5.98

same assay, conditions: Homo sapiens, OGD 4 h + OGR 24 h (IR), compounds 0.01 μM to 1 mM, read-out: Neuroprotection EC50 ± SEM

Row | Compound | EC50 [µM]
20 | C/[N+]([O-])=C/Cn1cc(Br)c(=O)[nH]c1=O [9d] | 29.2 ± 7.72
21 | C/[N+]([O-])=C/Cn1cc(Br)c(=O)n(C/C=[N+](/C)[O-])c1=O [9i] | 23.6 ± 4.17
22 | Cc1cn(C/C=[N+](/C)[O-])c(=O)[nH]c1=O [9b] | 193 ± 36.7
23 | C/[N+]([O-])=C/Cn1cnc2c(N)ncnc21 [9f] | 1.55 ± 0.15
24 | C/[N+]([O-])=C/Cn1cc(Cl)c(=O)[nH]c1=O [9e] | 165 ± 26.1

same assay, conditions: OGD 4 h + OGR 24 h (IR)

Row | Compound | Maximal Activity mean±SEM (neuroprotection)
25 | CC(C)(C)[N+]([O-])=Cc1ccccc1 [PBN, α-phenyl-N-tert-butylnitrone, reference compound] | 96.93 ±6.97% and ≈ 96%

same assay, conditions: OGD 4 h + OGR 24 h (IR), compounds 0.01 μM to 1 mM, read-out: Neuroprotection EC50 ± SEM

Row | Compound | EC50
26 | CC(C)(C)[N+]([O-])=Cc1ccccc1 [PBN, α-phenyl-N-tert-butylnitrone, reference compound] | 33.5 µM and ~35 µM

tested on: not listed separately; test: Reducing ability: interaction with DPPH; conditions: tested at 100 µM

Row | Compound | DPPH (%)
27 | C/[N+]([O-])=C/Cn1cc(Br)c(=O)[nH]c1=O [9d] | 6
28 | C/[N+]([O-])=C/Cn1cc(Br)c(=O)n(C/C=[N+](/C)[O-])c1=O [9i] | 76
29 | Cc1cn(C/C=[N+](/C)[O-])c(=O)[nH]c1=O [9b] | 11
30 | C/[N+]([O-])=C/Cn1cnc2c(N)ncnc21 [9f] | 9
31 | C/[N+]([O-])=C/Cn1cc(Cl)c(=O)[nH]c1=O [9e] | 13
